# According to patent publication US10508120B2, “TYK2 inhibitors and uses thereof” (Nimbus Lakshmi, Inc., priority 2017, dated 2019):
# Where two headings read alike, the source gives them in different places.
# Key:
# Tyk2 kinase domain (DH1) = Tyk2 kinase domain (DH1) (Homo sapiens (Human), UniProt P29597); assay: Tyk2 Radioactive Kinase Assay; type: biochemical; details: for inhibition at 10 µM: read-out: Tyk2 JH1% Inhibition @ 10 μM
# Summary of the method: (§1)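 Single-point screen: 10 μM test compound, radioactive kinase read-out, percent inhibition reported for each kinase domain.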
# [1] = biological target: human TYK2 (JH2domain-pseudokinase) (Homo sapiens (Human), UniProt P29597); assay: TYK2 JH2 Domain Binding Assay (KINOMEscan)
# human TYK2 (JH2domain-pseudokinase), sequence (P29597 556-888): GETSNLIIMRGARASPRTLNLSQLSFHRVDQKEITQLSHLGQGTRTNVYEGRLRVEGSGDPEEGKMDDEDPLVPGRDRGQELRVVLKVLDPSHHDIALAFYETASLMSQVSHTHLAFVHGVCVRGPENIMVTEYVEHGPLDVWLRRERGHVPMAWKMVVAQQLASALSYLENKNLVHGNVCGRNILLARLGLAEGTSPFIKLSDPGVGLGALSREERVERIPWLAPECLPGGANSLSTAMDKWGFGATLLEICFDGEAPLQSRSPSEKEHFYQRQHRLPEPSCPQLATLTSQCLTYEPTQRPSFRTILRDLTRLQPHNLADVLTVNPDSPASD
# Summary of the method: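 Competition binding of an NFkB-DBD fusion of human TYK2 JH2 (G556–D888), expressed in HEK293 and used as crude extract at <0.1 nM, against immobilized ligand beads; 1 h at room temperature in PBS/Tween/DTT/BSA buffer, 0.9% DMSO.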
# JAK2 kinase domain (JH1) = JAK2 kinase domain (JH1) (Homo sapiens (Human), UniProt O60674); assay: JAK2 Radioactive Kinase Assay; type: biochemical; details: for inhibition at 10 µM: read-out: JAK2 JH1% Inhibition @ 10 μM
# JAK2 kinase domain (JH1), sequence (O60674 849-1124): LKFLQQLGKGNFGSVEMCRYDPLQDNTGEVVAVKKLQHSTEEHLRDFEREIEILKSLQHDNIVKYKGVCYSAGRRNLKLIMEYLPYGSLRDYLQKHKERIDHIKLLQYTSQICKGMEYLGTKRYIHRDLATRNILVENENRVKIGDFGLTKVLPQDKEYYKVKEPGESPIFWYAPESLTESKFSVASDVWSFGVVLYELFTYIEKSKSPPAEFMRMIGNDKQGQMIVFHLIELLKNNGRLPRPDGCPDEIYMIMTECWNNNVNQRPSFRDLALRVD
# Summary of the method: as §1
# Tyk2 kinase domain (DH1), sequence (P29597 897-1176): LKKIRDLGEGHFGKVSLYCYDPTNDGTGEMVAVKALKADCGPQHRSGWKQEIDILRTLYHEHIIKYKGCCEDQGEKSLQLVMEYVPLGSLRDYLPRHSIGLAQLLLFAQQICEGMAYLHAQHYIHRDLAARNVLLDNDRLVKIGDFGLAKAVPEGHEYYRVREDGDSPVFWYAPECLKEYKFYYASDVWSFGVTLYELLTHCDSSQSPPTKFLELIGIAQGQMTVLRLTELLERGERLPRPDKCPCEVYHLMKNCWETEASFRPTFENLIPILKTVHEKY
"inhibition at 10 µM (Tyk2 kinase domain (DH1); 10 μM compound, 10 μM ATP) [%]",Kd [1] [nM],"inhibition at 10 µM (JAK2 kinase domain (JH1); 10 μM compound, 10 μM ATP) [%]","inhibition at 10 µM (Tyk2 kinase domain (DH1); compound at 10 μM, ATP 10 μM) [%]","inhibition at 10 µM (JAK2 kinase domain (JH1); compound at 10 μM, ATP 10 μM) [%]",Structure (SMILES),"Tyk2 JH1% Inhibition @ 10 μM (Tyk2 kinase domain (DH1); compound at 10 μM, ATP 10 μM)","JAK2 JH1% Inhibition @ 10 μM (JAK2 kinase domain (JH1); compound at 10 μM, ATP 10 μM)"
–,< 0.2,–,< 50,< 50,CNc1cc(Nc2cccnc2O[C@H]2C[C@H](OC)C2)nc2c(C(=O)N[C@H]3C[C@H]3F)cnn12 [I-189],–,–
–,> 10,–,< 50,< 50,"Nc1cc(Nc2cccnc2OC(F)(F)F)nc2c(C(=O)NC3COC3)cnn12 [I-103, 7-amino-N-(oxetan-3-yl)-5-((2-(trifluoromethoxy)pyridin-3-yl)amino)pyrazolo[1,5-a]pyrimidine-3-carboxamide]",–,–
–,< 0.2,–,< 50,< 50,"CNc1cc(-c2cn(C(C)C)c3ncccc23)nc2c(C(=O)N[C@H]3C[C@@H]3O)cnn12 (stereo in doubt) [I-733, N-((1 S,2S)-2-hydroxycyclopropyl)-5-(1-isopropyl-1H-pyrrolo[2,3-b]pyridin-3-yl)-7-(methylamino)pyrazolo[1,5-a]pyrimidine-3-carboxamide]",–,–
–,0.2 to 1,–,< 50,< 50,CC(C)Oc1ncc(Cl)cc1Nc1cc(N)n2ncc(C(N)=O)c2n1 [I-79],–,–
–,0.2 to 1,–,< 50,< 50,"CNc1cc(Nc2cccnc2OC)nc2c(C(=O)NCCC3(O)CC3)cnn12 [I-468, N-(2-(1-hydroxycyclopropyl)ethyl)-5-((2-methoxypyridin-3-yl)amino)-7-(methylamino)pyrazolo[1,5-a]pyrimidine-3-carboxamide]",–,–
–,< 0.2,–,< 50,< 50,CNc1cc(Nc2cccn(C3CCCN(C)C3)c2=O)nc2c(C(=O)N[C@@H]3C[C@@H]3F)cnn12 (stereo partly drawn) [I-506],–,–
< 50,0.2 to 1,< 50,–,–,"CNc1cc(-c2cn(CCN3CCN(C)CC3)c3ncccc23)nc2c(C(=O)N[C@@H]3CC[C@H]3O)cnn12 [I-921, N-((1R,2R)-2-hydroxycyclobutyl)-7-(methylamino)-5-(1-(2-(4-methylpiperazin-1-yl)ethyl)-1H-pyrrolo[2,3-b]pyridin-3-yl)pyrazolo[1,5-a]pyrimidine-3-carboxamide]",–,–
–,0.2 to 1,–,< 50,< 50,CNc1cc(-c2cn(C(C)C)c3ncccc23)nc2c(C(=O)NCC3(CO)CC3)cnn12 [I-587],–,–
< 50,0.2 to 1,< 50,–,–,CNc1cc(Nc2cc(Cl)cn(C3CCN(C)CC3)c2=O)nc2c(C(=O)N[C@@H]3CC[C@@H]3O)cnn12 [I-1007],–,–
–,0.2 to 1,–,< 50,< 50,CNc1cc(Nc2ccnn(-c3ccc(F)cc3)c2=O)nc2c(C(=O)N[C@H]3C[C@H]3F)cnn12 [I-134],–,–
–,0.2 to 1,–,< 50,< 50,CNc1cc(Nc2cc(Cl)cnc2O[C@H]2C[C@H](OC)C2)nc2c(C(N)=O)cnn12 [I-111],–,–
–,0.2 to 1,–,< 50,< 50,"COc1ncccc1Nc1cc(NC2CC2)n2ncc(C(=O)N[C@@H]3C[C@@H]3F)c2n1 [I-337, 7-(cyclopropylamino)-N-((1R,2S)-2-fluorocyclopropyl)-5-((2-methoxypyridin-3-yl)amino)pyrazolo[1,5-a]pyrimidine-3-carboxamide]",–,–
–,0.2 to 1,–,–,–,CNc1cc(Nc2cccn([C@H]3CC[C@H](OC)CC3)c2=O)nc2c(C(=O)N[C@H]3CC[C@H]3O)cnn12 [I-561],A (percent inhibition at 10 μM lower than 50),A (percent inhibition at 10 μM lower than 50)
–,< 0.2,–,< 50,< 50,CNc1cc(Nc2cccn(-c3ccc(F)cc3)c2=O)nc2c(C(=O)NCC(C)(C)CO)cnn12 [I-245],–,–
–,0.2 to 1,–,< 50,< 50,"CCCCn1cc(-c2cc(NC)n3ncc(C(=O)N[C@@H]4C[C@@H]4F)c3n2)c2cccnc21 [I-478, 5-(1-butyl-1H-pyrrolo[2,3-b]pyridine-3-yl)-N-((1R,2S)-2-fluorocyclopropyl)-7-(methylamino)pyrazolo[1,5-a]pyrimidine-3-carboxamide]",–,–
–,1 to 10,–,< 50,< 50,CNc1cc(-n2cc(N3CCOCC3)c3ncccc32)nc2c(C(=O)N[C@H]3C[C@H]3F)cnn12 [I-555],–,–
< 50,0.2 to 1,< 50,–,–,CNc1cc(Nc2cccn([C@H]3CCN(CCC#N)C3)c2=O)nc2c(C(=O)NC3CC3)cnn12 [I-1011],–,–
–,< 0.2,–,< 50,< 50,CNc1cc(Nc2cccn(-c3ccn(C4CC4)n3)c2=O)nc2c(C(N)=O)cnn12 [I-20],–,–

# The remaining lines, values behind:
Structure (SMILES),"inhibition at 10 µM (Tyk2 kinase domain (DH1); 10 μM compound, 10 μM ATP) [%]",Kd [1] [nM],"inhibition at 10 µM (JAK2 kinase domain (JH1); 10 μM compound, 10 μM ATP) [%]","inhibition at 10 µM (Tyk2 kinase domain (DH1); compound at 10 μM, ATP 10 μM) [%]","inhibition at 10 µM (JAK2 kinase domain (JH1); compound at 10 μM, ATP 10 μM) [%]","Tyk2 JH1% Inhibition @ 10 μM (Tyk2 kinase domain (DH1); compound at 10 μM, ATP 10 μM)","JAK2 JH1% Inhibition @ 10 μM (JAK2 kinase domain (JH1); compound at 10 μM, ATP 10 μM)"
CNc1cc(Nc2cccn([C@@H]3CCC[C@@H]3O)c2=O)nc2c(C(=O)NC3CC3)cnn12 [I-964],< 50,1 to 10,< 50,–,–,–,–
"NC(=O)c1cnn2c(N)cc(Nc3cccnc3OC(F)(F)F)nc12 [I-102, 7-amino-5-((2-(trifluoromethoxy)pyridin-3-yl)amino)pyrazolo[1,5-a]-pyrimidine-3-carboxamide]",–,0.2 to 1,–,70 to 90,> 90,–,–
CNc1cc(Nc2cccn(-c3ccccc3F)c2=O)nc2c(C(=O)N[C@@H]3CC[C@@H]3O)cnn12 [I-1036],< 50,0.2 to 1,< 50,–,–,–,–
CNc1cc(Nc2cc(C)cnc2OC)nc2c(C(=O)NCC(C)(C)CO)cnn12 [I-270],–,0.2 to 1,–,< 50,< 50,–,–
CNc1cc(Nc2cccn(CCOC)c2=O)nc2c(C(=O)NC3CC3)cnn12 [I-267],–,< 0.2,–,< 50,< 50,–,–
CNc1cc(Nc2cc(C)nn(-c3cnn(C)c3)c2=O)nc2c(C(N)=O)cnn12 [I-73],–,1 to 10,–,< 50,< 50,–,–
[2H]C([2H])([2H])Oc1ncccc1Nc1cc(NC)n2ncc(C(=O)N[C@@H]3CC[C@@H](O)C3)c2n1 [I-501],–,< 0.2,–,< 50,< 50,–,–
CNc1cc(Nc2cc(F)cn([C@@H]3CCCOC3)c2=O)nc2c(C(=O)N[C@H]3C[C@H]3F)cnn12 [I-558],–,< 0.2,–,< 50,< 50,–,–
Cc1cc(C)cc(Nc2cc(N)n3ncc(C(N)=O)c3n2)c1 [I-21],–,0.2 to 1,–,< 50,70 to 90,–,–
CNc1cc(Nc2cccn([C@@H]3CCCC[C@@H]3O)c2=O)nc2c(C(=O)NC3CC3)cnn12 [I-879],< 50,1 to 10,< 50,–,–,–,–
CNc1cc(Nc2cccn([C@H]3CCOC3)c2=O)nc2c(C(=O)NC3CC3)cnn12 [I-203],–,< 0.2,–,< 50,< 50,–,–
CNc1cc(Nc2cccn([C@H]3CCCN(CCC#N)C3)c2=O)nc2c(C(=O)N[C@@H]3C[C@@H]3F)cnn12 [I-1040],< 50,0.2 to 1,< 50,–,–,–,–
NC(=O)c1cnn2c(N)cc(Nc3cc(N4CCCC4)nc(C(F)(F)F)c3)nc12 [I-120],–,1 to 10,–,< 50,< 50,–,–
CNc1cc(Nc2cccn(C3CCOCC3)c2=O)nc2c(C(=O)NC[C@@H](C)CO)cnn12 [I-1032],< 50,0.2 to 1,< 50,–,–,–,–
CNc1cc(Nc2cccn([C@@H]3CCOC[C@@H]3OC)c2=O)nc2c(C(=O)NC3CC3)cnn12 [I-567],–,1 to 10,–,< 50,< 50,–,–
CNc1cc(Nc2cccn([C@@H]3CCN(C)C[C@@H]3F)c2=O)nc2c(C(=O)NC3CC3)cnn12 [I-688],–,< 0.2,–,< 50,< 50,–,–
CNc1cc(-c2cn(C3CCOCC3)c3ncccc23)nc2c(C(=O)N[C@H]3CC[C@@H]3OC)cnn12 [I-1065],< 50,< 0.2,< 50,–,–,–,–
CNc1cc(Nc2cccnc2OC)nc2c(C(=O)N[C@@H]3COC[C@@H]3O)cnn12 [I-614],–,1 to 10,–,< 50,< 50,–,–
CNc1cc(Nc2cccn(C3CCCOC3)c2=O)nc2c(C(=O)NC3CC3)cnn12 (stereo not drawn) [I-313],–,< 0.2,–,< 50,< 50,–,–
"CNc1cc(Nc2cccc3ocnc23)nc2c(C(=O)N[C@H]3CC[C@@H]3O)cnn12 [I-858, 5-(benzo[d]oxazol-4-ylamino)-N-((1S,2S)-2-hydroxycyclobutyl)-7-(methylamino)pyrazolo[1,5-a]pyrimidine-3-carboxamide]",< 50,< 0.2,< 50,–,–,–,–
CNc1cc(Nc2cccnc2O[C@@H]2CCOC2)nc2c(C(=O)NC3CC3)cnn12 [I-172],–,0.2 to 1,–,< 50,< 50,–,–
CNc1cc(Nc2cccn([C@@H]3CC[C@@H]3O)c2=O)nc2c(C(=O)N[C@@H]3C[C@@H]3F)cnn12 [I-1110],< 50,< 0.2,< 50,–,–,–,–
NC(=O)c1cnn2c(N)cc(Nc3cccn(C4CCN(CC(F)F)CC4)c3=O)nc12 [I-100],–,1 to 10,–,< 50,< 50,–,–
CNc1cc(-c2nn([C@H]3CCOC3)c3ncccc23)nc2c(C(=O)N[C@@H]3C[C@@H]3F)cnn12 [I-518],–,0.2 to 1,–,< 50,< 50,–,–
